Test results from ChEMBL document CHEMBL1201862, “PubChem BioAssay data set” (2004).
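Each compound was tested at five concentrations against cells in 96-well plates for 48 hours. The concentration for 50% growth inhibition is given as GI50.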 The source made the active and inactive calls. Cut-off read from the data, not from the text of the source: active = GI50 up to about 1.1 µM and inactive = higher.

What was measured:
Test in all cases: DTP human tumour cell line panel, 48 h
[1] = test system: CCRF-CEM
[2] = test system: OVCAR-8
[3] = test system: DU-145
[4] = test system: IGROV-1
[5] = test system: A498
[6] = test system: NCI-H226
[7] = test system: 786-0
[8] = test system: HOP-92
[9] = test system: HCT-116
[10] = test system: UO-31
[11] = test system: BT-549
[12] = test system: RXF 393
[13] = test system: HL-60
[14] = test system: NCI-H23
[15] = test system: SF-295
[16] = test system: Hs-578T
[17] = test system: SNB-75
[18] = test system: OVCAR-4
[19] = test system: SK-OV-3
[20] = test system: MDA-MB-435
[21] = test system: SN12C
[22] = test system: A549
[23] = test system: OVCAR-3
[24] = test system: SF-268
[25] = test system: PC-3
[26] = test system: OVCAR-5
[27] = test system: SNB-19
[28] = test system: UACC-62
[29] = test system: HT-29
[30] = test system: Malme-3M
[31] = test system: SR
[32] = test system: NCI-H460
[33] = test system: SK-MEL-2
[34] = test system: M14
[35] = test system: UACC-257
[36] = test system: ACHN
[37] = test system: CAKI-1
[38] = test system: T47D
[39] = test system: HCT-15
[40] = test system: K562
[41] = test system: NCI/ADR-RES
[42] = test system: LOX IMVI
[43] = test system: MOLT-4
[44] = test system: MCF7
[45] = test system: SF-539
[46] = test system: MDA-MB-231
[47] = test system: SK-MEL-5
[48] = test system: TK-10
[49] = test system: HOP-62
[50] = test system: EKVX
[51] = test system: HCC 2998
[52] = test system: SW-620
[53] = test system: U-251
[54] = test system: KM12
[55] = test system: COLO 205
[56] = test system: RPMI-8226
[57] = test system: MDA-N
[58] = test system: NCI-H522
[59] = test system: SK-MEL-28

With `CC1c2cc(c3c(c2O)CN([C@@H](C)C2CCCCC2)CO3)C(C)c2cc(c3c(c2O)CN([C@@H](C)C2CCCCC2)CO3)C(C)c2cc(c3c(c2O)CN([C@@H](C)C2CCCCC2)CO3)C(C)c2cc1c1c(c2O)CN([C@@H](C)C2CCCCC2)CO1` (stereo partly drawn) the GI50 [1] was 0.34 µM (active), the GI50 [2] was 1.15 µM (inactive) and the GI50 [3] was 1.35 µM (inactive). For the same molecule, the GI50 [4] was 1.32 µM (inactive), the GI50 [5] was 2.06 µM (inactive) and the GI50 [6] was 0.979 µM (active). For the same molecule, the GI50 [7] was 1.13 µM (inactive), the GI50 [8] was 1.45 µM (inactive) and the GI50 [9] was 1.06 µM (active). The GI50 [10] was 1.81 µM (inactive), the GI50 [11] was 1.77 µM (inactive) and the GI50 [12] was 2.44 µM (inactive). The GI50 [13] was 0.152 µM (active), the GI50 [14] was 1.5 µM (inactive) and the GI50 [15] was 1.8 µM (inactive). For the same molecule, the GI50 [16] was 1.35 µM (inactive), the GI50 [17] was 1.22 µM (inactive) and the GI50 [18] was 0.929 µM (active). The GI50 [19] was 1.48 µM (inactive), the GI50 [20] was 1.8 µM (inactive) and the GI50 [21] was 0.962 µM (active). For the same molecule, the GI50 [22] was 1.84 µM (inactive), the GI50 [23] was 1.71 µM (inactive) and the GI50 [24] was 1.33 µM (inactive). For the same molecule, the GI50 [25] was 1.77 µM (inactive), the GI50 [26] was 1.78 µM (inactive) and the GI50 [27] was 1.61 µM (inactive). The GI50 [28] was 1.8 µM (inactive), the GI50 [29] was 0.277 µM (active) and the GI50 [30] was 1.45 µM (inactive). The GI50 [31] was 197 nM (active), the GI50 [32] was 1.28 µM (inactive) and the GI50 [33] was 2.11 µM (inactive). For the same molecule, the GI50 [34] was 2.3 µM (inactive), the GI50 [35] was 1.66 µM (inactive) and the GI50 [36] was 1.47 µM (inactive). The GI50 [37] was 1.6 µM (inactive), the GI50 [38] was 1.56 µM (inactive) and the GI50 [39] was 1.51 µM. The GI50 [40] was 0.369 µM (active), the GI50 [41] was 1.27 µM (inactive) and the GI50 [42] was 0.681 µM (active). For the same molecule, the GI50 [43] was 1.34 µM (inactive), the GI50 [44] was 1.36 µM (inactive) and the GI50 [45] was 1.77 µM (inactive). The GI50 [46] was 1.31 µM (inactive), the GI50 [47] was 1.84 µM (inactive) and the GI50 [48] was 1.73 µM (inactive). The GI50 [49] was 1.97 µM (inactive), the GI50 [50] was 1.06 µM (active) and the GI50 [51] was 1.45 µM (inactive). For the same molecule, the GI50 [52] was 0.986 µM (active), the GI50 [53] was 0.964 µM (active) and the GI50 [54] was 0.838 µM (active). The GI50 [55] was 1.36 µM (inactive), the GI50 [56] was 0.414 µM (active) and the GI50 [57] was 0.849 µM (active). The GI50 [58] was 0.607 µM (active) and the GI50 [59] was 1.76 µM (inactive).
With `Clc1ccc(OCc2nnc3sc(-c4ccc(-c5ccc(Cl)cc5Cl)o4)nn23)c(Cl)c1` the GI50 [1] was 25.3 µM (inactive), the GI50 [2] was 17.9 µM (inactive) and the GI50 [3] was 23.4 µM (inactive). The GI50 [4] was 17.8 µM (inactive), the GI50 [5] was 17.4 µM (inactive) and the GI50 [6] was 20.4 µM (inactive). For the same molecule, the GI50 [7] was 13.3 µM (inactive), the GI50 [8] was 18.9 µM (inactive) and the GI50 [9] was 15.7 µM (inactive). The GI50 [10] was 25.8 µM (inactive), the GI50 [11] was 21.4 µM (inactive) and the GI50 [12] was 14.8 µM (inactive). The GI50 [13] was 28.2 µM (inactive), the GI50 [14] was 21.6 µM (inactive) and the GI50 [15] was 16.9 µM (inactive). The GI50 [16] was 19.7 µM (inactive), the GI50 [17] was 15 µM (inactive) and the GI50 [18] was 35.5 µM (inactive). The GI50 [19] was 19.1 µM (inactive), the GI50 [20] was 32.8 µM (inactive) and the GI50 [21] was 18.9 µM (inactive). For the same molecule, the GI50 [22] was 21.6 µM (inactive), the GI50 [23] was 17.1 µM (inactive) and the GI50 [24] was 15.6 µM (inactive). For the same molecule, the GI50 [25] was 18.1 µM (inactive), the GI50 [26] was 20 µM (inactive) and the GI50 [27] was 22.1 µM (inactive). The GI50 [28] was 25.7 µM (inactive), the GI50 [29] was 22.7 µM (inactive) and the GI50 [30] was 18.8 µM (inactive). For the same molecule, the GI50 [31] was 2580 nM (inactive), the GI50 [32] was 20.4 µM (inactive) and the GI50 [33] was 16.3 µM (inactive). The GI50 [34] was 25.5 µM (inactive), the GI50 [35] was 18.4 µM (inactive) and the GI50 [36] was 20 µM (inactive). The GI50 [37] was 28.7 µM (inactive), the GI50 [38] was 19.5 µM (inactive) and the GI50 [39] was 20.7 µM. For the same molecule, the GI50 [40] was 24.1 µM (inactive), the GI50 [41] was 20 µM (inactive) and the GI50 [42] was 19.3 µM (inactive). The GI50 [43] was 18.6 µM (inactive), the GI50 [44] was 31.6 µM (inactive) and the GI50 [45] was 14.8 µM (inactive). For the same molecule, the GI50 [46] was 16.3 µM (inactive), the GI50 [47] was 20.1 µM (inactive) and the GI50 [48] was 19.5 µM (inactive). The GI50 [49] was 15.4 µM (inactive), the GI50 [50] was 14.7 µM (inactive) and the GI50 [51] was 17.9 µM (inactive). For the same molecule, the GI50 [52] was 34.7 µM (inactive), the GI50 [53] was 19.8 µM (inactive) and the GI50 [54] was 32.6 µM (inactive). For the same molecule, the GI50 [55] was 26.1 µM (inactive), the GI50 [56] was 24.2 µM (inactive) and the GI50 [57] was 24.2 µM (inactive). The GI50 [58] was 17.8 µM (inactive) and the GI50 [59] was 23.8 µM (inactive).
